{"source": "BindingDB's records for PubMed 11160644", "about": "(Merck Frosst Centre For Therapeutic Research, 2001)", "target": "T1, Solute carrier organic anion transporter family member 1B1 (Homo sapiens, UniProt Q9Y6L6)", "T1 sequence (Q9Y6L6 whole entry)": "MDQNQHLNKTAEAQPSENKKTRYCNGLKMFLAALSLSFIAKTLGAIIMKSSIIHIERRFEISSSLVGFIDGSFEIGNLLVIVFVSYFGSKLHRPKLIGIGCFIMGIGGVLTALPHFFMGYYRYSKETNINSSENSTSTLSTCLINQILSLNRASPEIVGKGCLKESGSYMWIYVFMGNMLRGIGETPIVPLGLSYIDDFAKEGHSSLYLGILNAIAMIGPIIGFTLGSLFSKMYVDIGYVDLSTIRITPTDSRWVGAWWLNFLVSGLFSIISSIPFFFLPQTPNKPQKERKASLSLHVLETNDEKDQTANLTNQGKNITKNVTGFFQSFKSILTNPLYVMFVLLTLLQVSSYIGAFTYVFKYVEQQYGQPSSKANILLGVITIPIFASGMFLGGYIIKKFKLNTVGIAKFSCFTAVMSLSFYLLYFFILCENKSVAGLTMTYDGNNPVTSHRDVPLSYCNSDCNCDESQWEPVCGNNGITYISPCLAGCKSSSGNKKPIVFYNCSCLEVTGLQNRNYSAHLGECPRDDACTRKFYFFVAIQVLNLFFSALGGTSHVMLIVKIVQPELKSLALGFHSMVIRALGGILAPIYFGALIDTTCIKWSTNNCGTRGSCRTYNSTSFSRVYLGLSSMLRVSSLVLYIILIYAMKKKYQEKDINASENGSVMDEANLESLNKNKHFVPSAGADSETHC"}
{"smiles": "Cc1ccc(-c2ncc(Cl)cc2-c2ccc(S(C)(=O)=O)cc2)cn1", "values": [{"measurement": "Ki", "result": "> 10000", "unit": "nM"}]}
{"smiles": "COc1ccc2c(c1)c(CC(=O)O)c(C)n2C(=O)c1ccc(Cl)cc1", "note": "[indometacin]", "values": [{"measurement": "Ki", "result": 2, "unit": "nM"}]}
